In brackets after ≈: the same amount, converted by molar mass.
Tests used:
Test in all cases: in vitro antibacterial activity (MIC), agar dilution
Type in all cases: cell-based
[1] = tested on: Mycobacterium smegmatis ATCC 114; settings: organism code UU; BHI agar, 35-37° C., 20 to 24 hours; unit assumed
How it was run: (§1)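 Agar dilution on BHI agar with twelve successive compound dilutions; plates inoculated by Steers replicator with 1:100 culture dilutions (1:10 for slow growers such as Streptococcus). MIC is the lowest concentration giving no growth, slight haze or sparse colonies versus a drug-free control.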

[2] = tested on: Streptococcus Pneumonia 5649; settings: organism code ZZA; BHI agar, 35-37° C., 20 to 24 hours; unit assumed
How it was run: as §1

[3] = tested on: Streptococcus pyogenes 930; settings: organism code MM; BHI agar, 35-37° C., 20 to 24 hours; unit assumed
How it was run: as §1

[4] = tested on: Staphylococcus epidermidis 3519; settings: organism code HH; BHI agar, 35-37° C., 20 to 24 hours; unit assumed
How it was run: as §1

[5] = tested on: Streptococcus Pneumonia ATCC6303; settings: organism code XX; BHI agar, 35-37° C., 20 to 24 hours; unit assumed
How it was run: as §1

[6] = tested on: Staphylococcus aureus CMX 553; settings: organism code FF; BHI agar, 35-37° C., 20 to 24 hours; unit assumed
How it was run: as §1

[7] = tested on: Staphylococcus aureus CMX 642A; settings: organism code DD; BHI agar, 35-37° C., 20 to 24 hours; unit assumed
How it was run: as §1

Escherichia coli SS = settings: organism code RR; BHI agar, 35-37° C., 20 to 24 hours; unit assumed
How it was run: as §1

Candida albicans CCH 442 = settings: organism code TT; BHI agar, 35-37° C., 20 to 24 hours; unit assumed
How it was run: as §1

[8] = tested on: Staphylococcus aureus A5177; settings: organism code BB; BHI agar, 35-37° C., 20 to 24 hours; unit assumed
How it was run: as §1

[9] = tested on: Streptococcus agalactiae CMX 508; settings: organism code KK; BHI agar, 35-37° C., 20 to 24 hours; unit assumed
How it was run: as §1

[10] = tested on: Staphylococcus aureus ATCC 6538P; settings: organism code AA; BHI agar, 35-37° C., 20 to 24 hours; unit assumed
How it was run: as §1

[11] = tested on: Micrococcus luteus ATCC 4698; settings: organism code PP; BHI agar, 35-37° C., 20 to 24 hours; unit assumed
How it was run: as §1

[12] = tested on: Staphylococcus aureus 1775; settings: organism code GG; BHI agar, 35-37° C., 20 to 24 hours; unit assumed
How it was run: as §1

[13] = tested on: Haemophilis Influenzae DILL AMP R; settings: organism code WW; BHI agar, 35-37° C., 20 to 24 hours; unit assumed
How it was run: as §1

[14] = tested on: Streptococcus pyogenes EES61; settings: organism code LL; BHI agar, 35-37° C., 20 to 24 hours; unit assumed
How it was run: as §1

[15] = tested on: Streptococcus bovis A-5169; settings: organism code JJ; BHI agar, 35-37° C., 20 to 24 hours; unit assumed
How it was run: as §1

[16] = tested on: Enterococcus faecium ATCC 8043; settings: organism code II; BHI agar, 35-37° C., 20 to 24 hours; unit assumed
How it was run: as §1

[17] = tested on: Staphylococcus aureus A-5278; settings: organism code CC; BHI agar, 35-37° C., 20 to 24 hours; unit assumed
How it was run: as §1

[18] = tested on: Streptococcus Pneumonia 5979; settings: organism code ZZ; BHI agar, 35-37° C., 20 to 24 hours; unit assumed
How it was run: as §1

[19] = tested on: Streptococcus pyogenes PIU 2548; settings: organism code NN; BHI agar, 35-37° C., 20 to 24 hours; unit assumed
How it was run: as §1

[20] = tested on: Nocardia Asteroides ATCC9970; settings: organism code VV; BHI agar, 35-37° C., 20 to 24 hours; unit assumed
How it was run: as §1

Escherichia coli JUHL = settings: organism code QQ; BHI agar, 35-37° C., 20 to 24 hours; unit assumed
How it was run: as §1

Escherichia coli DC-2 = settings: organism code SS; BHI agar, 35-37° C., 20 to 24 hours; unit assumed
How it was run: as §1

[21] = tested on: Streptococcus Pneumonia GYR 1171; settings: organism code YY; BHI agar, 35-37° C., 20 to 24 hours; unit assumed
How it was run: as §1

[22] = tested on: Micrococcus luteus ATCC 9341; settings: organism code OO; BHI agar, 35-37° C., 20 to 24 hours; unit assumed
How it was run: as §1

[23] = tested on: Staphylococcus aureus NCTC10649M; settings: organism code EE; BHI agar, 35-37° C., 20 to 24 hours; unit assumed
How it was run: as §1

Compound	MIC [1] [µg/mL]	MIC [2] [µg/mL]	MIC [3] [µg/mL]	MIC [4] [µg/mL]	MIC [5] [µg/mL]	MIC [6] [µg/mL]	MIC [7] [µg/mL]	MIC (Escherichia coli SS) [µg/mL]	MIC (Candida albicans CCH 442) [µg/mL]	MIC [8] [µg/mL]	MIC [9] [µg/mL]	MIC [10] [µg/mL]	MIC [11] [µg/mL]	MIC [12] [µg/mL]	MIC [13] [µg/mL]	MIC [14] [µg/mL]	MIC [15] [µg/mL]	MIC [16] [µg/mL]	MIC [17] [µg/mL]	MIC [18] [µg/mL]	further results
CC[C@H]1OC(=O)[C@H](C)C(=O)[C@H](C)[C@@H](O[C@@H]2O[C@H](C)C[C@H](N(C)C)[C@H]2O)[C@](C)(OC/C=C/c2cncc(-n3ccnc3)c2)C[C@@H](C)C(=O)[C@H](C)[C@H]2NC(=O)O[C@@]21C [Example 37]	3.1 (≈ 3.96 µM)	2 (≈ 2.56 µM)	25 (≈ 32 µM)	0.1 (≈ 0.128 µM)	≤ 0.004	0.1 (≈ 0.128 µM)	0.1 (≈ 0.128 µM)	0.39 (≈ 0.499 µM)	> 100	0.1 (≈ 0.128 µM)	0.02 (≈ 0.0256 µM)	0.1 (≈ 0.128 µM)	0.2 (≈ 0.256 µM)	> 100	4 (≈ 5.12 µM)	0.02 (≈ 0.0256 µM)	0.01 (≈ 0.0128 µM)	0.05 (≈ 0.0639 µM)	> 100	> 128	MIC [19]: 0.39 µg/mL (≈ 0.499 µM); MIC [20]: 0.1 µg/mL (≈ 0.128 µM); MIC (Escherichia coli JUHL): 50 µg/mL (≈ 63.9 µM); MIC (Escherichia coli DC-2): 50 µg/mL (≈ 63.9 µM); MIC [21]: ≤ 0.004 µg/mL; MIC [22]: 0.01 µg/mL (≈ 0.0128 µM); MIC [23]: 0.2 µg/mL (≈ 0.256 µM)
CC[C@H]1OC(=O)[C@H](C)C(=O)[C@H](C)[C@@H](O[C@@H]2O[C@H](C)C[C@H](N(C)C)[C@H]2O)[C@](C)(OCC#Cc2ccc(-c3cnc4ccccc4n3)s2)C[C@@H](C)C(=O)[C@H](C)[C@H]2NC(=O)O[C@@]21C [Example 33]	0.2 (≈ 0.236 µM)	0.25 (≈ 0.295 µM)	0.39 (≈ 0.46 µM)	0.2 (≈ 0.236 µM)	0.03 (≈ 0.0354 µM)	0.2 (≈ 0.236 µM)	0.2 (≈ 0.236 µM)	0.78 (≈ 0.921 µM)	> 100	0.2 (≈ 0.236 µM)	0.01 (≈ 0.0118 µM)	0.2 (≈ 0.236 µM)	0.05 (≈ 0.059 µM)	50 (≈ 59 µM)	4 (≈ 4.72 µM)	0.02 (≈ 0.0236 µM)	0.01 (≈ 0.0118 µM)	0.05 (≈ 0.059 µM)	25 (≈ 29.5 µM)	0.25 (≈ 0.295 µM)	MIC [19]: 0.2 µg/mL (≈ 0.236 µM); MIC [20]: 0.1 µg/mL (≈ 0.118 µM); MIC (Escherichia coli JUHL): > 100 µg/mL; MIC (Escherichia coli DC-2): > 100 µg/mL; MIC [21]: 0.03 µg/mL (≈ 0.0354 µM); MIC [22]: 0.05 µg/mL (≈ 0.059 µM); MIC [23]: 0.39 µg/mL (≈ 0.46 µM)
CC[C@H]1OC(=O)[C@H](C)C(=O)[C@H](C)[C@@H](O[C@@H]2O[C@H](C)C[C@H](N(C)C)[C@H]2O)[C@](C)(OCC#Cc2ccc(-c3cccc(NC(C)=O)c3)s2)C[C@@H](C)C(=O)[C@H](C)[C@H]2NC(=O)O[C@@]21C [Example 20]	1.56 (≈ 1.83 µM)	0.25 (≈ 0.293 µM)	6.2 (≈ 7.28 µM)	0.1 (≈ 0.117 µM)	0.15 (≈ 0.176 µM)	0.1 (≈ 0.117 µM)	0.1 (≈ 0.117 µM)	0.2 (≈ 0.235 µM)	> 100	0.05 (≈ 0.0587 µM)	≤ 0.005	0.1 (≈ 0.117 µM)	0.1 (≈ 0.117 µM)	> 100	4 (≈ 4.69 µM)	0.02 (≈ 0.0235 µM)	≤ 0.005	0.05 (≈ 0.0587 µM)	> 100	0.5 (≈ 0.587 µM)	MIC [19]: 0.2 µg/mL (≈ 0.235 µM); MIC [20]: 0.1 µg/mL (≈ 0.117 µM); MIC (Escherichia coli JUHL): > 100 µg/mL; MIC (Escherichia coli DC-2): 100 µg/mL (≈ 117 µM); MIC [21]: 0.015 µg/mL (≈ 0.0176 µM); MIC [22]: 0.02 µg/mL (≈ 0.0235 µM); MIC [23]: 0.1 µg/mL (≈ 0.117 µM)

Source: US6054435A, “6-O-substituted macrolides having antibacterial activity” (priority 1999, dated 2000)
